Results published in US20090209522A1, “Heterocyclic Non-Peptide GNRH Antagonists” (priority 2005, published 2009).

Columns and labels:
[1] = biological target: T1, human GnRH receptors (Homo sapiens, UniProt P30968); assay: Human GnRH receptor functional assay (intracellular calcium release); type: cell-based; conditions: CHO-K1 cells expressing human GnRH receptors; block of GnRH (EC80)-induced intracellular calcium release; 20 minutes pre-incubation
T1 construct: expressed in transfected cells; host or cells: CHO-K1
T1 sequence (P30968 1-328): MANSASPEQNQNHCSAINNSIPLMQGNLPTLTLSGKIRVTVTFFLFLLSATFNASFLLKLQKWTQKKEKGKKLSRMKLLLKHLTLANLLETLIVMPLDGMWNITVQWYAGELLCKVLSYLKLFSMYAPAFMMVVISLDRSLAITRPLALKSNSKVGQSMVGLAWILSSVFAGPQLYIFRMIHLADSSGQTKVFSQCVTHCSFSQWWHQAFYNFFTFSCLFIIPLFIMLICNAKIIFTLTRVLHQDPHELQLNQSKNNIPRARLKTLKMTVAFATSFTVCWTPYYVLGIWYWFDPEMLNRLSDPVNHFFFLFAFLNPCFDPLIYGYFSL
Method: Human GnRH Receptor Functional Assay
GnRH-receptor antagonists may be functionally assessed by measurement of change in intracellular calcium levels induced by Gαq mediated increase in IP3 levels. The ability of compounds to block the intracellular release of calcium by GnRH in CHO-K1 cells expressing human GnRH receptors is determined as a measure of the compound's antagonist activity in vitro. Approximately 30,000 cells per assay well (half well 96 well assay plate—Corning) are seeded in normal culture medium. Twenty four hours after seeding the cells are loaded with a calcium sensitive fluorescent dye by replacing the culture medium with assay buffer (1× Hanks buffered saline, 25 mM HEPES, 0.1% w/v fatty acid free BSA, pH7.4) containing 2.5 mM probenecid and 1× Calcium Plus reagent (Molecular) Devices. Cells are incubated at 37° C. for 1 hour to allow for dye uptake. To test for antagonist activity, compounds at a concentration range between 0.1 nM-3.2 μM are added to the assay wells and allowed to incubate 20 minutes prior to stimulation with GnRH. After incubation with test compounds the assay plate is placed in a Flexstation II (Molecular Devices) and GnRH is added at the determined EC80 concentration (final). Ligand-dependent changes in intracellular calcium levels are determined by measuring changes in fluorescence of the dye at […] following excitation at 485 nm. Percentage inhibition curves are plotted using 4-parameter fit algorithm and IC50 values calculated for each compound.

IC50 [1]	melting point	SMILES
193 nM	–	COc1nc(NCCN(C)C)nc(OC)c1NC(=O)c1csc(Oc2cc(C(C)(C)C)ccc2C)n1 [Example 5, 2-(5-tert-Butyl-2-methylhenoxy)-N-(2-(2-(dimethylamino)ethylamino)-4,6-dimethoxypyrimidin-5-yl)thiazole-4-carboxamide]
4 nM	–	COc1cc2c(cc1Oc1nc(C(=O)Nc3c(OC)nc(NCCNC(C)C)nc3OC)cs1)C(C)(C)CC2 [Example 24, N-(2-(2-(Isopropylamino)ethylamino)-4,6-dimethoxypyrimidin-5-yl)-2-(6-methoxy-3,3-dimethyl-2,3-dihydro-1H-inden-5-yloxy)thiazole-4-carboxamide]
485 nM	68 °C	COc1nc(NCCCN2CCOCC2)nc(OC)c1NC(=O)c1csc(Oc2cccc(C(C)(C)C)c2)n1 [Example 2, 2-(3-tert-butylphenoxy)-N-(4,6-dimethoxy-2-(3-morpholinopropylamino)pyrimidin-5-yl)thiazole-4-carboxamide]
–	85 °C	COc1nc(NCCCN2CCOCC2)nc(OC)c1NC(=O)c1coc(Oc2cccc(C(C)(C)C)c2)n1 [Example 1, 2-(3-tert-butylphenoxy)-N-(4,6-dimethoxy-2-(3-morpholinopropylamino)pyrimidin-5-yl)oxazole-4-carboxamide]
